Measurements taken from paper PMC7764826, “Flavonol Glycosides: In Vitro Inhibition of DPPIV, Aldose Reductase and Combating Oxidative Stress are Potential Mechanisms for Mediating the Antidiabetic Activity of Cleome droserifolia” (Molecules, 2020).

Assays:
[1] = Ferric reducing antioxidant power (FRAP) assay; details: expressed in µM FeCl2; isolated compounds at 200 µg/mL
Procedure: The antioxidant potential of the extract and the isolated compounds was assessed according to the assay originally designed by Benzie and Strain (1996) using the DetectX® Ferric Reducing Antioxidant Power (FRAP™) Detection Kit by Arbor assays, Ann Arbor, USA. In the provided plate, 75 µL of the prepared FRAP Color Solution was mixed with 20 µL of either the aqueous extract (400 µg/mL), the isolated compounds (200 µg/mL), different concentrations of the standard ferrous chloride or ascorbic acid positive control. The mixture was incubated for 30 min at room temperature and the produced blue colored product was read at 560 nm. The FRAP values were calculated and expressed in µM FeCl2.

[2] = DPPH radical scavenging assay; details: 30 min, room temperature, 517 nm
Procedure: The free radical scavenging capacity of the parent extract of C. droserifolia together with the isolated compounds was estimated using 2,2-diphenyl-1-picrylhydrazil (DPPH) as described previously. In brief, 240 µL of 0.004% DPPH in methanol was added to 8 µL of the parent extract and the isolated compounds at different concentrations: (2, 4, 12, 16 µg/mL) and (0.5, 1, 3, 4 µg/mL), respectively. The reaction mixture was mixed and incubated in dark for 30 min at room temperature. The absorbance was then measured at 517 nm against blank that was done using water instead of the plant extract. Ascorbic acid was used as the antioxidant standard and the IC50 value for samples and standard was determined.

aldose reductase = biological target: T1, aldose reductase (Homo sapiens, UniProt P15121); assay: Aldose Reductase Inhibitor Screening Kit (NADPH absorbance at 340 nm); format: biochemical; details: in vitro; for IC50: mean ± SEM of two replicates, read-out: Aldose reductase inhibition IC50 (converted)
T1 construct: purchased Biovision
Procedure: Determination of the aldose reductase inhibitory effectiveness of the investigated samples was performed kinetically using the Aldose Reductase Inhibitor Screening Kit (Biovision, Milpitas, CA, USA), according to the manufacturer׳s protocol. The decrease in the absorption of NADPH at 340 nm was measured in a mixture containing NADPH, the enzyme and its substrate, DL-glyceraldeyde in addition to test samples [31]. […] A 90 μL of freshly prepared Aldose Reductase Solution was then added and the plate was incubated protected from light at 37 °C for 15–20 min. After incubation, 40 μL enzyme substrate in assay buffer was added and the absorbance was measured at 340 nm kinetically for 60–90 min at 37 °C. A background control free from the enzyme was run and subtracted from the readings. The IC50 was calculated and presented for the samples and the standard.

[3] = biological target: T2, Dipeptidyl peptidase IV (DPPIV) (Homo sapiens, UniProt P27487); assay: DPPIV Inhibitor Screening Kit (fluorescence); format: biochemical; details: in vitro, mean ± SEM of two replicates; read-out: DPPIV inhibition IC50 (converted)
T2 construct: purchased Abnova
T2 sequence (P27487 whole entry, species assumed): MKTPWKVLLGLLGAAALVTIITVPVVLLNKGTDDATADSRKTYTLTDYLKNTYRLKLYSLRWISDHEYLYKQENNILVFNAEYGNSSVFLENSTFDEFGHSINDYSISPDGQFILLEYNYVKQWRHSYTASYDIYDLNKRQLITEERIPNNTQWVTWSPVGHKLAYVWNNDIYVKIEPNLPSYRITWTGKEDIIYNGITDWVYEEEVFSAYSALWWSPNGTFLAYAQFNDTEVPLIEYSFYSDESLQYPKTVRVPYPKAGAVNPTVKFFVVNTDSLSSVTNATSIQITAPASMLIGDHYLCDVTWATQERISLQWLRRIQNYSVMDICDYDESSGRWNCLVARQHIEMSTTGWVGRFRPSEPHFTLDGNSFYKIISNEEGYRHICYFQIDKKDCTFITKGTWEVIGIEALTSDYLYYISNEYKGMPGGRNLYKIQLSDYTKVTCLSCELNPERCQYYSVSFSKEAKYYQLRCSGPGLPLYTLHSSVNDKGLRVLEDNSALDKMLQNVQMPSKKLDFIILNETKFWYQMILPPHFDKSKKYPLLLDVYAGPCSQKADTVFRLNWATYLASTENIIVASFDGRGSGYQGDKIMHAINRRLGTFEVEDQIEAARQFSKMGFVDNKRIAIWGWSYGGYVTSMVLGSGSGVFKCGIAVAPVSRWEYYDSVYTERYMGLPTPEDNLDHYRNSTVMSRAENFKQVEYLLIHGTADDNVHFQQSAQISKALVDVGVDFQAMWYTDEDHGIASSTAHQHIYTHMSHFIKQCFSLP
Description: The DPPIV Inhibitor Screening Kit (Abnova, Taipei, Taiwan) was used in accordance to the manufacturer׳s protocol.

breast (MCF7) carcinoma = details: cited from earlier work
[4] = biological target: T3, α-amylase from porcine pancreas (Sus scrofa, UniProt P00690); assay: α-amylase inhibition assay (CNPG3 substrate, kinetic); format: biochemical; details: in vitro, pH 6.9, 37 °C
T3 construct: purchased Sigma Aldrich
T3 sequence (P00690 16-511): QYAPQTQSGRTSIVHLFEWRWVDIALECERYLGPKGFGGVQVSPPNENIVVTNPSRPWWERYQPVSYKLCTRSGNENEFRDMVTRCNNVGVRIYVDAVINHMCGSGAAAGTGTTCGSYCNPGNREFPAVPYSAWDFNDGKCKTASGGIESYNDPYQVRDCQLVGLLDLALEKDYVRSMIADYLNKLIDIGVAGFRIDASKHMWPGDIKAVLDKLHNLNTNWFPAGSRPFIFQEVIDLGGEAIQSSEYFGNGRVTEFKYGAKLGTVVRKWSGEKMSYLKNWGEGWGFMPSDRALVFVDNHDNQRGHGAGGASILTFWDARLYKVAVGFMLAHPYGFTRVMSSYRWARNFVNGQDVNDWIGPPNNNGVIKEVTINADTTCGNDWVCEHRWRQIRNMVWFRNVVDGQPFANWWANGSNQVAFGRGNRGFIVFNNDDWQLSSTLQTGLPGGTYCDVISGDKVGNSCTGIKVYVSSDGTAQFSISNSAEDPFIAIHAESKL
Procedure: (§1) Alpha-glucosidase enzyme from Saccharomyces cerevisiae, α-amylase from porcine pancreas and 2-chloro-4-nitrophenyl-α-D-maltotrioside (CNPG3) were purchased from Sigma Aldrich. All other chemicals were purchased from UFC Biotechnology. A microplate reader (Anthos Zenyth-200RT, Cambridge, UK) was used for the spectrophotometric measurements. A Bruker NMR Spectrometer (Bruker, Yokohama, Japan) used for ^1H-NMR (400 MHZ) and ^13C-NMR (100 MHz) analysis. Spectra were recorded in CD3OD or DMSO-d6 using tetramethylsilane (Sigma-Aldrich, St. Louis, MO, USA) as an internal standard, and chemical shift values were expressed in δ ppm.
A pre-incubation mixture was prepared which contained 40 mM phosphate buffer (pH 6.9) together with different concentrations (10, 50, 100, 200 µg/mL) and (5, 20, 50, 100 µg/mL) for the parent extract and the isolated compounds, respectively. […] Then, 2-chloro-4-nitrophenyl maltotrioside (CNPG3) substrate was added where the final concentration was 0.9 µmole/mL. […] A control which was devoid of the test samples was also run in parallel.

liver (HepG2) carcinoma = details: cited from earlier work
[5] = test system: cultured skeletal muscle cells and adipocytes; design: method as in PMID 21890334; details: in vitro; cited from earlier work
colon (HCT116) carcinoma = details: cited from earlier work
[6] = biological target: Alpha-glucosidase enzyme from Saccharomyces cerevisiae; assay: α-glucosidase inhibition assay (PNP-G substrate); format: biochemical; details: in vitro, pH 6.9, 37 °C
Procedure: as §1
The tested samples were added to a reaction mixture in a 96-well microplate containing 20 µL of the phosphate buffer and 20 µL of 5 mM p-nitrophenyl α -D-glucopyranoside (PNP-G) in the buffer. […] The IC50 for test compounds as well as the standard was calculated and presented.

| Structure (SMILES) | DPPH radical scavenging IC50 [2] [µg/mL] | IC50 (aldose reductase) [µM] | IC50 [3] [µM] | melting point [°C] | IC50 [4] [µM] | α-glucosidase inhibition IC50 [6] [µg/mL] | FRAP value [1] [µM] | Cytotoxic activity (in words) (breast (MCF7) carcinoma) | Cytotoxic activity (in words) (liver (HepG2) carcinoma) | Effect on basal glucose uptake (in words) [5] | Cytotoxic activity (in words) (colon (HCT116) carcinoma) | Aldose reductase inhibitory activity (in words) (aldose reductase) |
| --- | --- | --- | --- | --- | --- | --- | --- | --- | --- | --- | --- | --- |
| C[C@@H]1O[C@@H](Oc2cc(O)c3c(=O)c(O[C@@H]4O[C@H](CO)[C@@H](O)[C@H](O)[C@H]4O)c(-c4ccc(O)c(O)c4)oc3c2)[C@H](O)[C@H](O)[C@H]1O [Compound 1, quercetin-3-O-β-D-glucosyl-7-O-α-rhamnoside] | 5.67 ± 0.09 | 50 | 0.318 | – | – | – | 3106 ± 52.2 | – | – | – | – | – |
| COc1cc(-c2oc3cc(O[C@@H]4O[C@H](CO)[C@@H](O)[C@H](O)[C@H]4O[C@@H]4O[C@@H](C)[C@H](O)[C@@H](O)[C@H]4O)cc(O)c3c(=O)c2O)ccc1O [Compound 2, isorhamnetin-7-O-β-D-neohesperidoside] | – | 8.73 | 0.917 | 225 | – | – | – | – | – | – | – | – |
| COc1cc(-c2oc3cc(O)cc(O)c3c(=O)c2O[C@@H]2O[C@H](CO)[C@@H](O)[C@H](O)[C@H]2O)ccc1O [Compound 3, isorhamnetin-3-O-β-D-glucoside] | – | 45 | 0.721 | – | – | – | – | – | – | – | – | – |

More lines, main results first:

| DPPH radical scavenging IC50 [2] [µg/mL] | IC50 (aldose reductase) [µM] | IC50 [3] [µM] | melting point [°C] | IC50 [4] [µM] | α-glucosidase inhibition IC50 [6] [µg/mL] | Structure (SMILES) | FRAP value [1] [µM] | Cytotoxic activity (in words) (breast (MCF7) carcinoma) | Cytotoxic activity (in words) (liver (HepG2) carcinoma) | Effect on basal glucose uptake (in words) [5] | Cytotoxic activity (in words) (colon (HCT116) carcinoma) | Aldose reductase inhibitory activity (in words) (aldose reductase) |
| --- | --- | --- | --- | --- | --- | --- | --- | --- | --- | --- | --- | --- |
| 9.44 ± 0.13 | 51.8 | 0.474 | – | 258 | 110.09 ± 4.2 | COc1ccc(-c2oc3cc(O[C@@H]4O[C@@H](C)[C@H](O)[C@@H](O)[C@H]4O)cc(O)c3c(=O)c2O[C@@H]2O[C@@H](C)[C@H](O)[C@@H](O)[C@H]2O)cc1 [Compound 4, kaempferol-4′-methoxy-3,7-O-α-dirhamnoside] | 1812 ± 33.2 | potent cytotoxic activities | potent cytotoxic activities | significant insulin-like effects | potent cytotoxic activities | – |
| 11.45 ± 0.48 | 119 | – | 257 | 163 | 86.54 ± 3.8 | COc1cc(-c2oc3cc(O[C@@H]4O[C@@H](C)[C@H](O)[C@@H](O)[C@H]4O)cc(O)c3c(=O)c2O[C@@H]2O[C@@H](C)[C@H](OC(C)=O)[C@@H](O)[C@H]2O)ccc1O [Compound 5, isorhamnetin-3-O-α-(4″- acetylrhamnoside)-7-O-α-rhamnoside] | 3610 ± 88.3 | potent cytotoxic activities | potent cytotoxic activities | significant insulin-like effects | potent cytotoxic activities | least aldose reductase inhibitory activity |
| 1.37 ± 0.07 | – | – | – | – | – | O=C1O[C@H]([C@@H](O)CO)C(O)=C1O [ascorbic acid, reference compound] | 685.2 ± 1.07 | – | – | – | – | – |
